Data: patent US12502369B2, “Methods of cancer treatment” (K-GEN, INC., priority 2015, dated 2025)
“Also recorded” adds a separate entry of the source. Where two headings read alike, the source gives them in different places.

Assays:
MiaPaCa-2 = assay: Proliferation assay (CellTiter Glo), MiaPaCa-2; assay type: cell-based; settings: for Top inhibition %: 96 hours
Method: (§1) Briefly, cells at a density of 1,000-10,000 cells/well were seeded in 96-well plates and incubated at 37′C for 24 hours. A series of 9 different concentrations of compound stocks (500×) were created by 3-fold serial dilution in DMSO. These compounds were further diluted in culture media and then added to cells so that the final DMSO concentration was 0.2%. After 96 hours of incubation, 50 μL of CellTiter Glo reagent (Promega) was added to each well and luminescence was measured after 10 minutes using EnVision (PerkinElmer). […] The dose range for most compounds was 4.6 nM-30 μM. The dose ranges for some compounds were adjusted downward to 0.46 nM-3 μM or 0.08 nM-0.5 μM or 0.03 nM-0.2 μM. Luminescence from cells treated with […] alone was set as Max and % of inhibition was calculated as follows: Inhibition %=(Max-Sample value)/Max*100. Data was analyzed using XL-fit software (ID Business Solutions Ltd.) and EC50, relative EC50, and % of top inhibition were calculated.

H727 = assay: Proliferation assay (CellTiter Glo), H727; assay type: cell-based; settings: for Top inhibition %: 96 hours
Method: as §1, with “calculated. The results are shown in Tables 3-6 for pancreatic cancer, lung cancer, colon/gastric cancer, and leukemia cell lines.” for “calculated.”

LS180 = assay: Proliferation assay (CellTiter Glo), LS180; assay type: cell-based; settings: for Top inhibition %: 96 hours; for EC50: absolute EC50, 96 hours, read-out: Ab EC50
Method: as §1, with “calculated. The results are shown in Tables 3-6 for pancreatic cancer, lung cancer, colon/gastric cancer, and leukemia cell lines.” for “calculated.”

HCT116 = assay: Proliferation assay (CellTiter Glo), HCT116; assay type: cell-based; settings: for Top inhibition %: 96 hours
Method: as §1, with “calculated. The results are shown in Tables 3-6 for pancreatic cancer, lung cancer, colon/gastric cancer, and leukemia cell lines.” for “calculated.”

AGS = assay: Proliferation assay (CellTiter Glo), AGS; assay type: cell-based; settings: for Top inhibition %: 96 hours
Method: as §1, with “calculated. The results are shown in Tables 3-6 for pancreatic cancer, lung cancer, colon/gastric cancer, and leukemia cell lines.” for “calculated.”

SW900 = assay: Proliferation assay (CellTiter Glo), SW900; assay type: cell-based; settings: SW900 (K-ras: G12V)
Method: as §1
(§2) Other cancer cell lines having wild-type K-ras status and K-ras mutation at G12 were also screened using the PKC activator compounds. […] K-104 was tested in a range of 0.03 nM-0.2 μM. […] The dose ranges were adjusted downward to 0.46 nM-3 μM for K-102 and 0.08 nM-0.5 μM for K-103 for some cell lines.

H1915 = assay: Proliferation assay (CellTiter Glo), H1915; assay type: cell-based; settings: H1915 (WT K-ras)
Method: as §1, §2

RPMI8226 = assay: Proliferation assay (CellTiter Glo), RPMI8226; assay type: cell-based; settings: RPMI8226 (K-ras: G12A)
Method: as §1, §2

[1] = tested on: PKCμ and PKCδ in HFL-1 cells; assay: Activation of PKC isoforms in non-cancerous lung fibroblast HFL-1 cells; assay type: cell-based, human; settings: 30 minutes
PKCμ = PKCμ phosphorylation in A549, HCT116, SW620, Panc02.13 cells, Western blot; assay type: cell-based; settings: 30 minutes
Method: Non-cancerous lung fibroblast cell line HFL-1 or cancer cells (2-8 million cells) were seeded in 10 cm dishes and grown overnight so that the cells were about 40-80% confluent before treatment with the compound. Cells were then treated with different drugs at indicated concentrations (see descriptions for FIG. 11 and FIG. 12) for 30 minutes. Cell lysate preparation, protein quantitation, SDS-PAGE, and Western blotting procedures are described in Example 2 and 4. Primary antibodies used in this Example and later Examples of this application are shown in Table A. Secondary antibodies Anti-mouse IgG HRP conjugate or Anti-rabbit IgG HRP conjugate (dilutions from 1:2000-1:10000) were used. Western blot membranes were scanned using Imagequant LAS4000 (GE).

[2] = tested on: PKCδ, PKCμ, c-Raf in MBT-2; assay: Activation of PKC isoforms in bladder cancer line MBT-2, Western blot; assay type: cell-based, mouse
MH22A = assay: Anti-cell proliferative effects, MH22A; assay type: cell-based, mouse
[3] = tested on: K-Ras mutant pancreatic, lung, and colon cancer cell lines, leukemia cell lines; assay: Proliferation assays, panel of cancer cell lines (summary statements); assay type: cell-based
Method: as §1, with “calculated. The results are shown in Tables 3-6 for pancreatic cancer, lung cancer, colon/gastric cancer, and leukemia cell lines.” for “calculated.”

phospho-PKC (pan) = assay: Western blot of phospho-PKC (pan) in A549 cells; assay type: cell-based
Method: Cancer cells (2-8 million cells) were seeded in 10 cm dishes and grown overnight. For A549 lung cancer cell line, about 3 million cells were seeded. Cells were then treated with different drugs at indicated concentrations (see Table 8) for a period of time up to 48 hours. Cells were lysed in 0.3-0.5 mL of RIPA buffer (Sigma) supplemented with protease inhibitors (Roche) and phosphatase inhibitors (Sigma). Lysates were assayed for protein concentration using BCA kit (Pierce). Normalized amount of lysates (20-30 μg protein/lane) were run on 4-12% NuPage gel (Life Technologies) and the proteins were transferred to the PVDF or nitrocellulose membrane using iBlot® Transfer Stack (Life Technologies). The membranes were probed with primary antibodies shown in Table 8 at 4° C. overnight after blocking with 1×TBST containing 5% non-fat milk. Antibodies from other vendors could also be used in Western blot analysis. After washing 5 times with 1×TBS containing 0.1% Tween20, the membranes were probed with 2nd antibodies Anti-mouse IgG Dylight 800 conjugate or Anti-rabbit IgG DyLight 680 conjugate (1:10000; Cell signaling or similar IR 2nd antibodies from different vendors) at room temperature for one hour. After washing 5 times, the membranes were scanned using Odyssey® Imaging System (Licor Biosciences).

[4] = tested on: PKCμ and PKCδ in Namalwa, Mino, Raji, Daudi; assay: Activation of PKC isoforms in four lymphoma cell lines, Western blot; assay type: cell-based
Method: Western blot analysis was performed as described in Example 2 and 4.

[5] = literature reports; cited from earlier work
[6] = absolute EC50, 96 hours, read-out: Ab EC50
[7] = relative EC50, 96 hours, read-out: Re EC50

CC(=O)OCC1=C[C@H]2[C@@H]3C(C)(C)[C@]3(OC(C)=O)C[C@@H](C)[C@]2(O)C2C=C(C)C(=O)[C@@]2(O)C1 (some centres unmarked) [Compound K-101E]
Top inhibition % (MiaPaCa-2): 61.4% | EC50 (MiaPaCa-2; [6]): 1.88 µM | EC50 (MiaPaCa-2; [7]): 0.86 µM | Top inhibition % (H727): 49.1% | EC50 (H727; [6]): > 30 µM | EC50 (H727; [7]): 0.62 µM | Top inhibition % (LS180): 1.3% | EC50 (LS180): > 30 µM | Top inhibition % (HCT116): 27.4% | EC50 (HCT116; [6]): > 30 µM | EC50 (HCT116; [7]): 6.64 µM | Top inhibition % (AGS): 25.9% | EC50 (AGS; [6]): > 30 µM | EC50 (AGS; [7]): 4.38 µM | Top inhibition % (SW900): 25.4% | Top inhibition % (H1915): 35.6% | Top inhibition % (RPMI8226): 32.25%

C/C=C(/C)C(=O)O[C@H]1C(C)=C[C@]23C(=O)[C@@H](C=C(CO)[C@@H](O)[C@]12O)[C@H]1[C@@H](C[C@H]3C)C1(C)C [Compound K-102, Ingenol-3-angelate, reference compound]
phosphorylation of PKCμ at Ser916 and Ser744/748, and PKCδ at Thr505 and Tyr311 [1]: resulted in phosphorylation | PKCμ activation, phosphorylation at Ser744/748 (PKCμ): observed for all four cancer cell lines | PKCμ activation, phosphorylation at Ser916 (PKCμ): observed primarily in cell lines A549 and Pan 02,13; also recorded: observed primarily in cell lines A549 and Panc02.13 | phosphorylations of PKCδ at Thr505, PKCμ at Ser744/748, PKCμ at Ser916, c-Raf at Ser338 ([2]; MBT-2, K101A 1 μM, K102 0.1 μM): induced phosphorylations | sensitivity to anti-cell proliferative effects (MH22A): insensitive | potency in proliferation inhibition relative to prostratin [3]: more potent in proliferation inhibition

CC(=O)O[C@@]12C[C@@H](C)[C@]3(O)C4C=C(C)C(=O)[C@@]4(O)CC(CO)=C[C@H]3[C@@H]1C2(C)C (some centres unmarked) [Compound K-101A, Prostratin]
Top inhibition % (MiaPaCa-2): 74.4% | EC50 (MiaPaCa-2; Homo sapiens, MIA PaCa-2, absolute EC50, 96 hours, read-out: Ab EC50): 0.3 µM | EC50 (MiaPaCa-2; Homo sapiens, MIA PaCa-2, relative EC50, 96 hours, read-out: Re EC50): 0.18 µM | Top inhibition % (H727): 48.3% | EC50 (H727; Homo sapiens, NCI-H727, absolute EC50, 96 hours, read-out: Ab EC50): > 30 µM | EC50 (H727; Homo sapiens, NCI-H727, relative EC50, 96 hours, read-out: Re EC50): 0.19 µM | Top inhibition % (LS180): 4.4% | EC50 (LS180; Homo sapiens): > 30 µM | Top inhibition % (HCT116): 17.4% | EC50 (HCT116; Homo sapiens, HCT-116, absolute EC50, 96 hours, read-out: Ab EC50): > 30 µM | Top inhibition % (AGS): 21.7% | EC50 (AGS; Homo sapiens, absolute EC50, 96 hours, read-out: Ab EC50): > 30 µM | EC50 (AGS; Homo sapiens, relative EC50, 96 hours, read-out: Re EC50): 0.49 µM | Top inhibition % (SW900): 7.1% | Top inhibition % (H1915): 27.7% | Top inhibition % (RPMI8226): 32.39% | phospho-PKC (pan) level (phospho-PKC (pan); 0.5 uM of K-101A): without affecting | phospho-PKC (pan) levels (phospho-PKC (pan); 48 hours, K-103, K-102 at 0.5 μM, K-101A at 2.5 μM): reduction | phosphorylation of PKCμ at Ser916 and Ser744/748, and PKCδ at Thr505 and Tyr311 [1]: resulted in phosphorylation | phosphorylations of PKCδ at Thr505, PKCμ at Ser744/748, PKCμ at Ser916, c-Raf at Ser338 [2]: induced phosphorylations | sensitivity to anti-cell proliferative effects (MH22A): insensitive | phosphorylation of PKCμ at Ser744/748 and Ser916 and PKCδ at Thr505 [4]: induced in all cell lines | proportion of phosphorylated PKCμ at Ser916/total PKCμ [4]: much greater in two sensitive cell lines | tumor promotion [5]: non-tumor-promoting
